US20240207308A1, “METHOD FOR CULTURING DENDRITIC CELLS” (NANOFAENTECH CO., LTD., priority 2021, published 2024)

Legend:
Format in all cases: cell-based, mouse
[1] = tested on: spleen dendritic cells and T cells; assay: ELISA of cytokines after 4 days co-culture of spleen dendritic cells and allogeneic T cells; details: dendritic cells activated with LPS and poly (I:C), co-culture 4 days
Procedure: Since the main role of activated dendritic cells is to induce antigen-specific T-cell activation and proliferation according to the stimulatory properties, it was investigated whether self-activated dendrite cells after culturing and dendritic cells activated with LPS after culturing with addition of peptides can induce T cell proliferation by mixed lymphocyte reaction (MLR) test. The spleen dendritic cells isolated from C57B/L6 mice were self-activated for 24 hours, otherwise, when cultured with addition of peptides or fibronectin, the cells were treated with LPS and activated. Spleen T cells from Balb/c mice were isolated using a CD4^+/CD8^+ T cell isolation kit (Miltenyi Biotec, Bergisch-Gladbach, Germany) and MACS column (Miltenyi Biotec), followed by 10 μM CFSE staining (Molecular Probes; Thermo Fisher Scientific Inc., USA). The activated dendritic cells and CFSE-stained T cells were co-cultured at a ratio of 1:20 for 4 days, and the T cell proliferation level was measured as a percentage of cells with decreased CFSE. […] In FIG. 22, the amount of cytokines secreted after co-culture of spleen dendritic cells and T cells for 4 days was measured by ELISA method. […]

[2] = tested on: bone marrow-derived dendritic cells; assay: CD86 expression of LPS-stimulated bone marrow-derived dendritic cells, flow cytometry; details: 24 hours, LPS 1 μg/mL
Procedure: Compared to spleen dendritic cells, when bone marrow-derived DCs (BMDCs) were stimulated with LPS, effects of the peptide combination and the addition of fibronectin were measured.
Mouse bone marrow-derived dendritic cells were obtained by differentiation from mouse bone marrow precursor cells. The femur and tibia of female C57BL/6 mouse were removed, and bone marrow was isolated using 10 mL of EDTA:BSS (Balanced Salt Solution) buffer containing 2% FBS. Red blood cells were removed with erythrocyte lysis buffer (Sigma-Aldrich), washed with EDTA:BSS buffer, followed by filtering cells using a 70 μm cell strainer (Falcon). Cells at 3×10^6/mL were dispensed in a 6-well plate, and interleukin-4 (20 ng/ml) (JW Creagene, Korea) and GM-CSF (20 ng/ml) (JW Creagene) were added and cultured for 7 days to induce differentiation. Differentiated dendritic cells were reacted with microbeads bound with CD11c antibody (eBioscience), was separated using CD11c Microbeads Ultrapure (MACS, Milteni Biotec), and then cultured.
In FIG. 17, while culturing 2×10^5/mL of bone marrow-derived dendritic cells for 24 hours, the peptides of P1, P2 and P3 were each added at a concentration of 200 μg/mL or fibronectin was added at a concentration of 200 μg/mL. […]

[3] = tested on: spleen primary dendritic cells; assay: ELISA of TNF-α / IL-12p40 secreted by cultured spleen primary dendritic cells; details: 24 hours
Procedure: In FIG. 12, spleen primary dendritic cells were dispensed at 1×10^6/mL and cultured for 24 hours, and then a concentration of TNF-α secreted from these cells in the culture medium was measured. As a result, it was confirmed that the secretion increased in a time-dependent manner. The concentration of TNF-α was measured at 450 nm using an ELISA kit (R&D systems) and a microplate analyzer (Synergy H1, Biotek). However, when dendritic cells were dispensed at 2×10^5/mL, CD86 expression was increased but TNF-α secretion was not increased (results not presented). * indicates statistical significance as P<0.05 or less compared with 3 h.
In FIG. 13, spleen primary dendritic cells were dispensed at 1×10^6/mL and cultured for 24 hours. […] Furthermore, when P4, P5 and P6 peptides were added at a concentration of 200 μg/mL, respectively, the secretion of TNF-α was not inhibited.
Therefore, it could be seen that fibronectin has a disadvantage of inhibiting the activation by stimulants although can maintain the inactivation of spleen dendritic cells. * indicates statistical significance as P<0.05 or less compared to -LPS.
In FIG. 27, an ELISA kit (R&D systems) was used to measure the concentration of TNF-α secreted into the culture medium when spleen primary dendritic cells were dispensed at 2×10^5/mL and cultured for 24 hours. The concentration was determined at 450 nm by a microplate analyzer (Synergy H1, Biotek).

spleen dendritic cells = assay: Fluorescence staining of CD86 in spleen dendritic cells, confocal microscope; details: 24 hours
Procedure: In FIG. 11, culturing spleen dendritic cells (2×10^5/mL) and the prepared peptides were added at a concentration of 200 μg/mL, respectively, and after 6 hours, the expression level of CD86 using a PE-conjugated anti-CD86 antibody (eBioscience) was measured through a confocal microscope after fluorescence staining. After culturing spleen primary dendritic cells for a certain period of time, intracellular CD86, F-actin and nuclear staining was implemented. Expression of actin was stained with FITC-conjugated phalloidin (eBioscience), and nuclear staining was conducted with Hoechst 33342 (Sigma-Aldrich). For this purpose, cells cultured in a 48-well plate were placed in a 4% paraformaldehyde fixing solution, and then fixed at room temperature for 20 minutes.
Then, after washing twice with phosphate buffered saline solution, it was permeabilized with 0.1% Triton X-100 (Sigma-Aldrich) solution at room temperature for 5 minutes and washed twice with phosphate buffered saline solution. In order to remove non-specific staining, after reacting with 0.2% bovine serum albumin (Sigma-Aldrich) solution at room temperature for 20 minutes, it was washed twice with phosphate buffered saline solution. After that, the anti-CD86 antibody and phalloidine were diluted in 0.2% bovine serum albumin solution at a ratio of 1:40 and reacted for 40 minutes, washed 3 times with Tris buffer, placed on a slide glass, followed by counter-staining with Hoechst 33342 solution for nuclear staining of cells. After sealing with a cover glass, the cells were observed using a confocal laser microscope (K1 nanoscope).
In FIG. 26, spleen dendritic cells (2×10^5/mL) were dispensed in a 48-well plate, and linker peptides were each added at a concentration of 400 μg/mL, followed by culturing for 24 hours. Activation of spleen dendritic cells was induced by adding 1 μg/mL of LPS to the culture medium. The cultured cells were placed in a 4% paraformaldehyde fixing solution and fixed at room temperature for 20 minutes. After fluorescence staining using PE-conjugated anti-CD86 antibody (eBioscience), it was measured with a confocal microscope (K1 Nanoscope, Korea). Intracellular actin expression was stained with FITC-conjugated phalloidin (eBioscience), and nuclear staining was conducted with Hoechst 33342 (Sigma-Aldrich). CD86 antibody and phalloidin were diluted 1:40 in 0.2% bovine serum albumin solution and used.

## fibronectin
[1]
  secretion of IFN-γ, IL-6, TNF-α and IL-5: extremely low
[2]; BMDC 2×10^5/mL, 200 μg/mL
  CD86 expression by LPS: did not occur
[2]; BMDC
  concentration from which the increase in CD86 expression by LPS was inhibited: ≥ 50 µg/mL
[3]; 1 μg/mL LPS
  secretion of TNF-α and IL-12p40: did not produce these cytokines
[3]; cells 1×10^6/mL, no stimulant
  secretion of TNF-α: hardly measured
[3]; cells 2×10^5/mL, without LPS
  TNF-α secretion: hardly occurred
Spleen dendritic cells; with 1 μg/mL LPS
  CD86-expressing cells: almost not measured
Spleen dendritic cells; without LPS, linker peptides 400 μg/mL
  CD86-expressing cells: almost not observed
